The values that follow come from publication PMC6851853, “Characterization of P. falciparum dipeptidyl aminopeptidase 3 specificity identifies differences in amino acid preferences between peptide‐based substrates and covalent inhibitors” (The Febs Journal, 2019).

The target in one assay is T1, DPAP1 (Plasmodium falciparum, UniProt Q8IIJ9).
T1 sequence (Q8IIJ9 28-209): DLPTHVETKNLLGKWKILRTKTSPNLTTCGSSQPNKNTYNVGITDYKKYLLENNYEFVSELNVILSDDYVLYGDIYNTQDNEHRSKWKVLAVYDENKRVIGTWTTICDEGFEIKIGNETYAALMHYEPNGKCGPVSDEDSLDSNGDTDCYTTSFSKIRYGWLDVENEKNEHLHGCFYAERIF
T1 sequence (Q8IIJ9 370-599): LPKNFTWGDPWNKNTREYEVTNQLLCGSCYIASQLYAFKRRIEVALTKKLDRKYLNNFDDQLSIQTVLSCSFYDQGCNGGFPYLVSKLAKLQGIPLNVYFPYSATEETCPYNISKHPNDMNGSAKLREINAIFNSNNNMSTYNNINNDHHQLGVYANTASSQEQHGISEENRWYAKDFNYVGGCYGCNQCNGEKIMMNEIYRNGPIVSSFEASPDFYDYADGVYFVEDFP
T1 sequence (Q8IIJ9 600-700): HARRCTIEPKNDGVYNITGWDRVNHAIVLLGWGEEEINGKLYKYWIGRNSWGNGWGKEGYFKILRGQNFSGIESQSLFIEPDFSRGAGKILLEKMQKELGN
The assay is described as follows: biochemical. Particulars: for kinact: read-out: DPAP1 / k inact ·10^3; for kinact/KI: read-out: DPAP1 / k inact/K i ·10^−3 (M ^−1·s^−1). Set-up: species or system P. falciparum parasite lysate; continuous fluorogenic assay, time-dependent inactivation of DPAP1 in diluted parasite lysate, Pro-Arg-AMC 20 uM. On the procedure: (§1) Inhibition of DPAP1 was directly measured in parasite lysates diluted 100‐fold in assay buffer using the DPAP1‐selective substrate Pro‐Arg‐AMC 42; 0.2 nM of […] was used for these inhibition studies. Note that because DPAP1 inhibition was directly measured in parasite lysates, inhibitors might have been partially inactivated through the action of aminopeptidases present in the lysates during the course of the assay. Therefore, the potency of the inhibitors might have been underestimated. […] The data were analysed according to the irreversible inhibition model shown in Eqn. 1. First, the progress curves (fluorescent units vs. time) were fitted to Eqn. 5, where F is the measured fluorescence at time t, F 0 the initial fluorescence, V 0 the initial turnover rate, and k obs the observed […] rate constant of inhibition measured at each inhibitor concentration 64.

The next assay has as its target T2, CatC (bovine) (Bos taurus, UniProt Q3ZCJ8).
T2 construct: gene CTSC; native, purified to homogeneity from bovine spleen
Put plainly: biochemical. Set-up: continuous fluorogenic assay, time-dependent inactivation of 0.2 nM CatC, Gly-Arg-AMC 15 uM. Particulars: for kinact: read-out: CatC / k inact ·10^3; for kinact/KI: read-out: CatC / k inact/K i ·10^−3 (M ^−1·s^−1). On the procedure: as §1

Assay [1] concerns the target T3, DPAP3 (Plasmodium falciparum, UniProt Q8I1Y2). The assay is described as follows: biochemical. Set-up: gene PF3D7_0404700; recombinant, baculovirus/SF9 insect cells, purified from culture supernatant by ion exchange, Ni-NTA and size exclusion; active-site titrated; continuous fluorogenic assay, time-dependent inactivation of 0.2 nM recombinant DPAP3, Met-nLeu(o-Bzl)-ACC 2.2 uM. The following applies: for kinact: read-out: DPAP3 / k inact ·10^3; for kinact/KI: read-out: DPAP3 / k inact/K i ·10^−3 (M ^−1·s^−1). The procedure: The data were analysed according to the irreversible inhibition model shown in Eqn. 1. First, the progress curves (fluorescent units vs. time) were fitted to Eqn. 5, where F is the measured fluorescence at time t, F 0 the initial fluorescence, V 0 the initial turnover rate, and k obs the observed […] rate constant of inhibition measured at each inhibitor concentration 64. […] The inhibition constants are reported in Fig. 3C and Table 2 (See also Fig. S2 for representative fits). Only one inhibitor, containing an amino‐1‐methyl‐benzyl (Amb) group in P2, was not able to inhibit DPAP3 in a time‐dependent manner under our assay conditions (Fig. 3D). This is probably due to the fact that this extended and rigid P2 AA (Fig. 3E) might prevent proper positioning of the [compound left out] group into the active site of DPAP3 to allow covalent modification of the catalytic cysteine. For this compound, a K i value for reversible inhibition was measured.
Target sequence in this assay (Q8I1Y2 entry or part of it): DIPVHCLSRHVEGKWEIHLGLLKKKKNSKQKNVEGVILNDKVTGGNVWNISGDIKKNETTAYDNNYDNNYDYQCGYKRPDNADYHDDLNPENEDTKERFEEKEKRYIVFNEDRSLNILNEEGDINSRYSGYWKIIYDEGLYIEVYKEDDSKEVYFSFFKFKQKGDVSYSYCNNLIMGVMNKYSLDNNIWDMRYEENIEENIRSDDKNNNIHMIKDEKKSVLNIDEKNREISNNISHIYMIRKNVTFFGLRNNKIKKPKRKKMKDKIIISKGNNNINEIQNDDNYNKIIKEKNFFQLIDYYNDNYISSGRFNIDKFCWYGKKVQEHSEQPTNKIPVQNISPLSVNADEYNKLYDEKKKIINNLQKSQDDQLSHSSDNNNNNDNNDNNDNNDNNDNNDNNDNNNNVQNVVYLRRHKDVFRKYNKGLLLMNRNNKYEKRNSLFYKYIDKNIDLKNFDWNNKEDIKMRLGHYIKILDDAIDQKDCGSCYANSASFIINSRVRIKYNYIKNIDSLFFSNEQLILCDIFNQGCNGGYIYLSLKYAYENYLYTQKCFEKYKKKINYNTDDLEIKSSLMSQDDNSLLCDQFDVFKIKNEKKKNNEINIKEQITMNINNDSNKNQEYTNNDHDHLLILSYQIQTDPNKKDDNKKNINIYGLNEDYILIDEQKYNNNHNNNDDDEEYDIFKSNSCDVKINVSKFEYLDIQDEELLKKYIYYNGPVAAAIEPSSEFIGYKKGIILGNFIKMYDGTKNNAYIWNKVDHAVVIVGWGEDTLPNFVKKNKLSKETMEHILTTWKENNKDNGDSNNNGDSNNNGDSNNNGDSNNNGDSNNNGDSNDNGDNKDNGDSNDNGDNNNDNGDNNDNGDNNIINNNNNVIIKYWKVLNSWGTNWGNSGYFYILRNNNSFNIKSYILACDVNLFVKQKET

The target in assay [2] is T3, DPAP3. Put plainly: cell-based. Set-up: native enzyme in live parasites (mature schizonts); species or system P. falciparum mature schizonts in red blood cells; competitive activity-based probe FY01 labelling in intact parasites, in-gel fluorescence densitometry. Particulars: live parasites, 30 min pretreatment. The procedure:
Live parasites were treated with different concentrations of inhibitor for 30 min, and the residual level of DPAPs and FPs activities were labelled with FY01 and quantified by densitometry (Fig. 6A). […] Compounds with a P2 Trp or Tyr(NO2) are highly specific for DPAP3 in intact parasites. […] Inhibitors need to cross four membranes to reach DPAP3: the RBC, parasitophorous vacuole and parasite plasma membranes, plus the membrane of the apical organelle where DPAP3 resides 21. (The parasitophorous vacuole is a membrane‐bound structure within which the parasite grows and multiplies isolated from the RBC cytosol.) However, crossing of the parasitophorous vacuole membrane is not likely to be a limiting factor to reach DPAP3 since this membrane is generally permeable to small molecules. It is also likely that the apparent increased potency of Trp‐hPG‐VS in live parasites might be due to its accumulation into the DPAP3 acidic organelle via protonation of its free amine. However, we predict that this lysosomotropic effect likely occurs for all DPAP inhibitors presented here.  Figure 6 Selective inhibition of DPAP1 or DPAP3 in live parasites. Intact mature schizonts were pretreated for 30 min with increasing concentrations of inhibitor followed by 1 h treatment with FY01. Samples were then run in an SDS/PAGE gel and the in‐gel fluorescence measured using a fluorescence scanner. (A) Representative gel images obtained for each of the inhibitors. Fluorescent bands corresponding to the different cysteine proteases labelled by the probe are indicated with arrowheads (DPAP3, red; FPs, green; DPAP1, blue). (B) The fluorescence intensity of each of the indicated bands was quantified by densitometry using ImageJ, and the fluorescence values normalized to the DMSO control. […] Three technical replicates were performed; dose responses for a representative replicate are shown.
Target sequence in this assay (Q8I1Y2 entry or part of it): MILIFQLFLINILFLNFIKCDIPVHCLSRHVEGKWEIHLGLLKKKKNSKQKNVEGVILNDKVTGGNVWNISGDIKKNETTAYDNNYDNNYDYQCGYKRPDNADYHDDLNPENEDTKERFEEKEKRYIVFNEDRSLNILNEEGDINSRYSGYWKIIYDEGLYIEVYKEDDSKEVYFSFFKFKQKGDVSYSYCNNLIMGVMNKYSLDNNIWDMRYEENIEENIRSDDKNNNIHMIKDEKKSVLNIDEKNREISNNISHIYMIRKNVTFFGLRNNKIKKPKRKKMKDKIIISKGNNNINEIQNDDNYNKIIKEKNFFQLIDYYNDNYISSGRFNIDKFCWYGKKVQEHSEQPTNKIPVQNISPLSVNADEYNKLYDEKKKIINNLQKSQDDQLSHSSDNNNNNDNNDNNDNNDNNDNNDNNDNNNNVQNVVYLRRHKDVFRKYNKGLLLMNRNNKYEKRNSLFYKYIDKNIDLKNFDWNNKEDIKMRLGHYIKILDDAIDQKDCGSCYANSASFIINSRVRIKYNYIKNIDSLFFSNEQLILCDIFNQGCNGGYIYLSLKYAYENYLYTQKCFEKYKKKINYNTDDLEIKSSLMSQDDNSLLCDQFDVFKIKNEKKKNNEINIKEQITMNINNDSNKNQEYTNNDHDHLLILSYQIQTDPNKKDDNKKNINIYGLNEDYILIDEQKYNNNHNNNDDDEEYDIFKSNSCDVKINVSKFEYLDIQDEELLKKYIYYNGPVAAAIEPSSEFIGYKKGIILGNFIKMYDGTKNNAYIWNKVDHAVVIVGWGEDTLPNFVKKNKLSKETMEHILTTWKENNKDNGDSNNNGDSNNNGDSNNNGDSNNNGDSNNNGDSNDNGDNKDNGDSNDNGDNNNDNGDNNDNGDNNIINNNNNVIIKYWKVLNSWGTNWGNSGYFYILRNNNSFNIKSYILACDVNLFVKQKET

T2 sequence (Q3ZCJ8 25-134): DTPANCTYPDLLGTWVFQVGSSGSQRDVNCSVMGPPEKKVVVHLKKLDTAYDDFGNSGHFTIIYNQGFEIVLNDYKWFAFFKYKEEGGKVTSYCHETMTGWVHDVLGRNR
T2 sequence (Q3ZCJ8 231-394): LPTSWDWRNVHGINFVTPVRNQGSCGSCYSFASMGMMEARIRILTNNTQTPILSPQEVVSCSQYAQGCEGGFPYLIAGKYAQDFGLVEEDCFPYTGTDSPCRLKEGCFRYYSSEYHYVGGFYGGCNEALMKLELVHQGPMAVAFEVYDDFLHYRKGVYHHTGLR
T2 sequence (Q3ZCJ8 395-463): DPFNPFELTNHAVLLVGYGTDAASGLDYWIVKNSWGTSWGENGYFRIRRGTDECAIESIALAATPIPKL

For `O=C(N[C@H](C=CS(=O)(=O)c1ccccc1)CCc1ccccc1)[C@@H]1CCCN1` [Pro‐hPhe‐VS], the values for the kinact on DPAP1, on CatC (bovine) and at DPAP3 [1] were 0.0021 ± 0.0002 s⁻¹, 0.00145 ± 7e-05 s⁻¹ and 0.0035 ± 0.0002 s⁻¹, respectively. Further, the kinact/KI on DPAP1 worked out at 470000 ± 35000 M⁻¹ s⁻¹; at CatC (bovine), 42000 ± 5000 M⁻¹ s⁻¹; on DPAP3 [1], 4100 ± 300 M⁻¹ s⁻¹.

Take `N[C@H](Cc1c[nH]c2ccccc12)C(=O)N[C@H](/C=C/S(=O)(=O)c1ccccc1)CCc1ccccc1` [D‐Trp‐hPhe‐VS]: the kinact was found to be 0.0027 ± 0.0002 s⁻¹ on DPAP1, 0.0026 ± 0.0001 s⁻¹ on CatC (bovine) and 0.0017 ± 0.0006 s⁻¹ at DPAP3 [1]. Further, the results for the kinact/KI on DPAP1, on CatC (bovine) and on DPAP3 [1] were 26 ± 1 M⁻¹ s⁻¹, 620 ± 70 M⁻¹ s⁻¹ and 320 ± 80 M⁻¹ s⁻¹, respectively.

For the compound `N[C@@H](Cc1ccc(O)c([N+](=O)[O-])c1)C(=O)N[C@H](C=CS(=O)(=O)c1ccccc1)CCc1ccccc1` [Tyr(NO2)‐hPhe‐VS], the kinact at DPAP1 is 0.0038 ± 0.001 s⁻¹; at CatC (bovine), 0.0032 ± 0.0006 s⁻¹; at DPAP3 [1], 0.00226 ± 5e-05 s⁻¹. Also, the kinact/KI on DPAP1 was 150 ± 50 M⁻¹ s⁻¹; at CatC (bovine) it was 54 ± 8 M⁻¹ s⁻¹; at DPAP3 [1], 950000 ± 74000 M⁻¹ s⁻¹.

Take `CCC[C@H](N)C(=O)N[C@H](/C=C/S(=O)(=O)c1ccccc1)CCc1ccccc1` [nVal‐hPhe‐VS]: the kinact at DPAP1 was determined as 0.002 ± 0.0001 s⁻¹; on CatC (bovine) it was 0.0022 ± 0.0001 s⁻¹; at DPAP3 [1] it was 0.0026 ± 0.0004 s⁻¹. The kinact/KI on DPAP1 was 3.16e+06 ± 750000 M⁻¹ s⁻¹; on CatC (bovine), 5.83e+06 ± 970000 M⁻¹ s⁻¹; at DPAP3 [1] it was 940000 ± 160000 M⁻¹ s⁻¹.

`N[C@@H](Cc1c[nH]c2ccccc12)C(=O)N[C@H](/C=C/S(=O)(=O)c1ccccc1)CCc1ccccc1` [L‐Trp‐hPhe‐VS]: the kinact is 0.0017 ± 0.0001 s⁻¹ at DPAP1, 0.0022 ± 9e-05 s⁻¹ at CatC (bovine) and 0.0033 ± 0.0004 s⁻¹ on DPAP3 [1]. Moreover, the kinact/KI amounted to 3200 ± 300 M⁻¹ s⁻¹ on DPAP1, 131000 ± 15000 M⁻¹ s⁻¹ at CatC (bovine) and 52000 ± 7000 M⁻¹ s⁻¹ on DPAP3 [1].

Turning to `N[C@H](C(=O)N[C@H](/C=C/S(=O)(=O)c1ccccc1)CCc1ccccc1)C1Cc2ccccc2C1` [Igl‐hPhe‐VS], the kinact was found to be 0.0027 ± 0.0001 s⁻¹ on DPAP1, 0.0058 ± 0.0003 s⁻¹ at CatC (bovine) and 0.0021 ± 0.0007 s⁻¹ at DPAP3 [1]. Further, the figures for the kinact/KI at DPAP1, at CatC (bovine) and at DPAP3 [1] were 500 ± 30 M⁻¹ s⁻¹, 18000 ± 3000 M⁻¹ s⁻¹ and 205000 ± 22000 M⁻¹ s⁻¹, respectively.

Consider `O=C(N[C@H](/C=C/S(=O)(=O)c1ccccc1)CCCCOCc1ccccc1)[C@@H]1CCCCN1` [hPro‐nLeu(o‐Bzl)‐VS], for which the kinact came out at 0.0029 ± 0.0003 s⁻¹ at DPAP1, 0.00167 ± 3e-05 s⁻¹ at CatC (bovine) and 0.002 ± 0.0001 s⁻¹ at DPAP3 [1]. Also, the kinact/KI on DPAP1 turned out to be 3.56e+06 ± 150000 M⁻¹ s⁻¹; on CatC (bovine), 150000 ± 6000 M⁻¹ s⁻¹; on DPAP3 [1], 53000 ± 6500 M⁻¹ s⁻¹.

With `N[C@@H](Cc1ccc(O)c([N+](=O)[O-])c1)C(=O)N[C@H](/C=C/S(=O)(=O)c1ccccc1)CCCCOCc1ccccc1` [Tyr(NO2)‐nLeu(o‐Bzl)‐VS], the kinact is 0.0026 ± 0.0003 s⁻¹ at DPAP1, 0.0029 ± 0.0002 s⁻¹ at CatC (bovine) and 0.0027 ± 0.0002 s⁻¹ at DPAP3 [1]. The kinact/KI on DPAP1 was found to be 1100 ± 300 M⁻¹ s⁻¹; on CatC (bovine) it was 380 ± 50 M⁻¹ s⁻¹; at DPAP3 [1], 51000 ± 10000 M⁻¹ s⁻¹. For the same compound, the IC50 on DPAP3 [2] is 730 ± 170 nM.

With `N[C@@H](Cc1ccc2ccccc2c1)C(=O)N[C@H](/C=C/S(=O)(=O)c1ccccc1)CCc1ccccc1` [2Nal‐hPhe‐VS], the figures for the kinact on DPAP1, at CatC (bovine) and on DPAP3 [1] were 0.0067 ± 0.0002 s⁻¹, 0.0037 ± 0.0002 s⁻¹ and 0.00259 ± 7e-05 s⁻¹, respectively. In addition, the figures for the kinact/KI at DPAP1, on CatC (bovine) and at DPAP3 [1] were 200 ± 5 M⁻¹ s⁻¹, 900 ± 100 M⁻¹ s⁻¹ and 10200 ± 500 M⁻¹ s⁻¹, respectively.

`N[C@H](Cc1c[nH]c2ccccc12)C(=O)N[C@H](/C=C/S(=O)(=O)c1ccccc1)CCCCOCc1ccccc1` [D‐Trp‐nLeu(o‐Bzl)‐VS]: the results for the kinact at DPAP1, on CatC (bovine) and on DPAP3 [1] were 0.0055 ± 0.0007 s⁻¹, 0.00197 ± 6e-05 s⁻¹ and 0.0036 ± 0.0002 s⁻¹, respectively. In addition, the kinact/KI on DPAP1 is 44 ± 2 M⁻¹ s⁻¹; on CatC (bovine), 1700 ± 100 M⁻¹ s⁻¹; at DPAP3 [1], 470 ± 10 M⁻¹ s⁻¹. For the same compound, the IC50 at DPAP3 [2] is 2700 ± 1600 nM.

Turning to `N[C@H](C(=O)N[C@H](/C=C/S(=O)(=O)c1ccccc1)CCCCOCc1ccccc1)C1Cc2ccccc2C1` [Igl‐nLeu(o‐Bzl)‐VS], the values for the kinact on DPAP1, on CatC (bovine) and at DPAP3 [1] were 0.0041 ± 0.0002 s⁻¹, 0.00148 ± 6e-05 s⁻¹ and 0.0056 ± 0.0004 s⁻¹, respectively. Moreover, the kinact/KI at DPAP1 was found to be 860 ± 50 M⁻¹ s⁻¹; at CatC (bovine), 135000 ± 14000 M⁻¹ s⁻¹; on DPAP3 [1], 35000 ± 4500 M⁻¹ s⁻¹.

Consider `N[C@@H](Cc1ccc2ccccc2c1)C(=O)N[C@H](/C=C/S(=O)(=O)c1ccccc1)CCCCOCc1ccccc1` [2Nal‐nLeu(o‐Bzl)‐VS], for which the kinact at DPAP1 is 0.005 ± 0.0017 s⁻¹; on CatC (bovine) it was 0.0024 ± 0.0006 s⁻¹; on DPAP3 [1], 0.006 ± 0.0007 s⁻¹. For the same compound, the kinact/KI at DPAP1 is 190 ± 50 M⁻¹ s⁻¹; at CatC (bovine) it was 1370 ± 90 M⁻¹ s⁻¹; at DPAP3 [1], 2200 ± 300 M⁻¹ s⁻¹.

`N[C@@H](Cc1c[nH]c2ccccc12)C(=O)N[C@H](/C=C/S(=O)(=O)c1ccccc1)CCCCOCc1ccccc1` [L‐Trp‐nLeu(o‐Bzl)‐VS]: the results for the kinact at DPAP1, on CatC (bovine) and on DPAP3 [1] were 0.0022 ± 0.0001 s⁻¹, 0.00174 ± 3e-05 s⁻¹ and 0.0032 ± 0.0003 s⁻¹, respectively. The kinact/KI on DPAP1 was determined as 5800 ± 600 M⁻¹ s⁻¹; on CatC (bovine) it was 355000 ± 18000 M⁻¹ s⁻¹; at DPAP3 [1] it was 826000 ± 193000 M⁻¹ s⁻¹. Moreover, on DPAP3 [2], the IC50 is 760 ± 150 nM.

What is called IC50 is the concentration at which inhibition is half-maximal.
